Laboratory results as given in patent US12076432B2, “Method of repairing oxidatively treated hair” (Conopco, Inc., priority 2018, dated 2024).

Experiments:
[1] = Denaturation temperature (Td) by DSC of bleached hair after soak in 1% aqueous N-acetyl amino acid solution; design: Denaturation Temperature Td (n = 3): unit not given here; settings: hair soaked 30 minutes in 1% aqueous solution; for Denaturation Temperature Td (n = 3): DSC, no rinse; for Difference from control (Td): vs Control 1 or Control 2 (twice bleached hair), in °C (unit assumed)
Protocol: Hair that has been damaged has internal protein with a reduced denaturation temperature compared to that of virgin hair. The reduction in denaturation temperature is attributed to a degradation of the internal hair cortex proteins.
Hair damage can be measured in different ways. This invention focusses on the structural integrity of hair cortex proteins, as can be determined by Differential Scanning Calorimetry.
(§1) Hair was bleached for 30 min with Platine Precision White Compact Lightening Powder (L'Oreal Professionnel Paris, Paris, France) mixed with 9% cream peroxide, 30 ‘vol’ (Excel GS Ltd, UK) (60 g of powder mixed with 120 g cream peroxide). Hair was then rinsed with water for 2 minutes. This procedure was repeated on the same hair to produce twice bleached hair.
(§2) In the following examples, compositions A-C are comparative examples and 1-6 are in accordance with the invention. The compositions are 1% aqueous solutions of various N-Acetyl amino acids, prepared by adding the N-acetyl amino acid to water with stirring.
In the following experiments, Control 1 and 2 were from two different batches of twice bleached hair. They were dialysed with water before being used.
(§3) Twice bleached dark brown European hair was soaked for 30 minutes in 1% aqueous solutions of various N-Acetyl amino acids. The hair was then removed from the solution. Clippings from a few fibres were then taken and the denaturation temperature (Td) was measured using DSC.

[2] = Denaturation temperature (Td) by DSC of soaked bleached hair after subsequent rinse step; settings: for Difference from control (Td): after soak and 30 seconds rinse, vs Control 1 or Control 2; for Td (n = 3): after soak, rinsed in running water for 30 seconds, DSC
Protocol: as §1, §2, §3
The effect of a subsequent rinse step was determined.
(§4) The switches from experiment 1 were rinsed in running water for 30 seconds.

[3] = Denaturation temperature (Td) by DSC of soaked and rinsed bleached hair after wash with base wash; settings: after soak; for Difference from control (Td): rinse and wash with 14% SLES, vs Control (DB) or Control 2; for Td (n = 3): rinse and wash with base wash (14% SLES solution), DSC
Protocol: as §1, §2, §3, §4
The rinsed switches of experiment 2 were washed with base wash (14% SLES solution) and DSC performed.
Hair was washed with a cleansing shampoo using the following method:—
The hair fibres were held under running water for 30 seconds, shampoo applied at a dose of 0.1 ml of shampoo per 1 g of hair and rubbed into the hair for 30 seconds. Excess lather was removed by holding under running water for 30 seconds and the shampoo stage repeated. The hair was rinsed under running water for 1 minute.

| Structure (SMILES) | Denaturation Temperature Td (n = 3) [1] | Difference from control (Td) [1] | Difference from control (Td) [2] [°C] | Td (n = 3) [2] | Difference from control (Td) [3] [°C] | Td (n = 3) [3] |
| --- | --- | --- | --- | --- | --- | --- |
| CC(=O)N[C@@H](C)C(=O)O [N-Acetyl Alanine] | 156.00 | 7.4 | 4.2 | 152.99 | 2.76 | 151.11 |
| CC(=O)N[C@@H](CCCNC(=N)N)C(=O)O [N-Acetyl Arginine, reference compound] | 148.57 | −0.03 | – | – | – | – |
| CC(=O)N[C@@H](CS)C(=O)O [N-Acetyl Cysteine, reference compound] | 149.27 | 0.67 | – | – | – | – |
| CC(=O)N[C@@H](CCC(=O)O)C(=O)O [N-Acetyl Glutamic acid] | 154.69 | 6.09 | 3.89 | 152.67 | 2.9 | 151.26 |
| CC(=O)N[C@@H](CCC(N)=O)C(=O)O [N-Acetyl Glutamine] | 155.15 | 6.55 | 1.97 | 150.75 | 2.5 | 150.85 |
| CC(=O)N[C@@H](Cc1c[nH]cn1)C(=O)O [N-Acetyl Histidine] | 148.08 | 2.51 | 1.64 | 147.76 | 1.93 | 147.65 |
| CSCC[C@H](NC(C)=O)C(=O)O [N-Acetyl Methionine] | 153.36 | 7.79 | 3.85 | 149.97 | 5.42 | 151.14 |
| CC(=O)N1CCC[C@H]1C(=O)O [N-Acetyl Proline] | 154.46 | 5.86 | 2.16 | 150.95 | 1.08 | 149.43 |
| CC(=O)N[C@@H](CO)C(=O)O [N-Acetyl Serine] | 156.25 | 7.65 | 3.02 | 151.80 | – | – |
